Measurements: US20200032213A1, “CONDITIONALLY IMMORTALIZED CELLS AND METHODS FOR THEIR PREPARATION” (Academisch Ziekenhuis Leiden h.o.d.n. LUMC, priority 2017, published 2020)

What was measured:
[1] = tested on: iaCMCs at day 9 of differentiation; experiment: Optical voltage mapping of tertiapin-treated iaCMC-d9 monolayers, 1-Hz pacing; format: cell-based, rat; conditions: tertiapin (100 nM), iaCMCs cultured 9 days without Dox
Experimental: (§1) For studying AP propagation in confluent monolayer cultures, cells were seeded at a density of 8×10^5 cells/well in 24-well cell culture plates onto bovine fibronectin-coated round glass coverslips (15 mm diameter) and subjected to optical voltage mapping using di-4-ANEPPS (Thermo Fisher Scientific) as fluorescent voltage indicator as described previously (Bingen et al., 2014). The measurements were carried out at 37° C. on 9-day-old naCMC and nvCMC cultures and on iaCMCs that had been maintained for 0, 3, 6, 9 and 12 days in Dox-free medium. Optical signals were captured using a MiCAM ULTIMA-L imaging system (SciMedia, Costa Mesa, Calif.). Optical traces were analyzed using Brain Vision Analyzer 1208 software (Brainvision, Tokyo, Japan). To minimize noise artifacts, calculations were based on the average of the signals at a selected pixel and its eight nearest neighbors. CV and APD at different percentages of repolarization were determined using cardiomyocyte cultures showing uniform AP propagation and 1:1 capture after 1-Hz local electrical stimulation with an epoxy-coated bipolar platinum electrode delivering square 10-ms, 8-V suprathreshold electrical impulses via a STG 2004 stimulus generator and MC Stimulus II software (both from Multi Channel Systems). Burst pacing with a cycle length of 20 to 100 ms was used to induce reentry. […]

[2] = tested on: confluent monolayers of iaCMCs; experiment: In vitro AF model: induction of reentry by burst pacing in confluent iaCMC monolayers; format: cell-based, rat; conditions: 100 nM tertiapin, iaCMCs at day 6, 9 or 12 of differentiation
Experimental: as §1

confluent naCMC cultures = conditions: naCMCs; Bingen et al., 2013; cited from earlier work
[3] = tested on: adipogenically differentiated murine clone 6 and 7 tBPAs; experiment: Adrenergic stimulation of adipogenically differentiated tBPAs (glycerol production, Ucp1 transcripts); format: cell-based
iaCMCs = experiment: Dox-dependent proliferation of iaCMCs (Ki-67 immunostaining, cell counting); format: cell-based, rat; conditions: in the presence of Dox (100 ng/ml)
Experimental: Immunostaining of cultured cells was performed as previously described (Yu et al., 2016) using the following primary antibodies at a dilution of 1:200 in PBS containing 0.1% normal donkey serum (NDS; Sigma-Aldrich): mouse anti-LT (Santa Cruz Biotechnology, catalogue number: sc-147), rabbit anti-Ki-67 (Abcam, catalogue number: ab15580), mouse anti-α-actinin (Sigma-Aldrich, catalogue number: A7811), rabbit anti-MLC2a (Kubalak et al., 1994), rabbit anti-Cx43 (Sigma-Aldrich, catalogue number: C6219) and rabbit anti-ERG1/Kv11.1 (Millipore, catalogue number: AB5930). Bound antigens were detected using Alexa 488-conjugated donkey anti-rabbit IgG (H+L) (Thermo Fisher Scientific, catalogue number: A21206) and Alexa 568-coupled donkey anti-mouse IgG (H+L) (Thermo Fisher Scientific, catalogue number: A10037). These secondary antibodies were diluted 1:400 in PBS. Hoechst 33342 ([…]; Thermo Fisher Scientific) was used to counterstain nuclei. Stained cells were visualized using a digital color camera-equipped fluorescence microscope (Nikon Eclipse 80i; Nikon Instruments Europe, Amstelveen, The Netherlands). To assess their proliferation rate, […] were cultured at low density in medium with or without 100 ng/ml Dox. […]

[4] = tested on: iaCMCs at day 6 of differentiation; experiment: Optical voltage mapping of iaCMC-d6 cultures exposed to astemizole, 1-Hz pacing; format: cell-based, rat
Experimental: For studying AP propagation in confluent monolayer cultures, cells were seeded at a density of 8×10^5 cells/well in 24-well cell culture plates onto bovine fibronectin-coated round glass coverslips (15 mm diameter) and subjected to optical voltage mapping using di-4-ANEPPS (Thermo Fisher Scientific) as fluorescent voltage indicator as described previously (Bingen et al., 2014). The measurements were carried out at 37° C. on 9-day-old naCMC and nvCMC cultures and on iaCMCs that had been maintained for 0, 3, 6, 9 and 12 days in Dox-free medium. Optical signals were captured using a MiCAM ULTIMA-L imaging system (SciMedia, Costa Mesa, Calif.). Optical traces were analyzed using Brain Vision Analyzer 1208 software (Brainvision, Tokyo, Japan). To minimize noise artifacts, calculations were based on the average of the signals at a selected pixel and its eight nearest neighbors. CV and APD at different percentages of repolarization were determined using cardiomyocyte cultures showing uniform AP propagation and 1:1 capture after 1-Hz local electrical stimulation with an epoxy-coated bipolar platinum electrode delivering square 10-ms, 8-V suprathreshold electrical impulses via a STG 2004 stimulus generator and MC Stimulus II software (both from Multi Channel Systems). Burst pacing with a cycle length of 20 to 100 ms was used to induce reentry. […] To facilitate comparison of the APD, the amplitude of the optical signal traces was normalized for all samples within a given experiment.

**Q.** With tertiapin (ALCNCNRIIIPHMCWKKCGKK) as the compound, how does the “effect on APD” value [1] read?
**A.** strong increase

**Q.** What about the “inducibility of reentry by burst pacing” value [2] of the same compound?
**A.** no longer possible to induce reentry

**Q.** What about the “termination of reentrant circuits (rotors) by prolonging APD” value (confluent naCMC cultures) of the same compound?
**A.** could be terminated

**Q.** What does the source list for C[C@H](Cc1ccc2c(c1)OC(C(=O)[O-])(C(=O)[O-])O2)NC[C@H](O)c1cccc(Cl)c1.[Na+].[Na+] [CL316243]?
**A.** Ucp1 transcript levels [3]: increased; glycerol production [3]: increased

**Q.** For C[C@H]1c2cccc(O)c2C(=O)C2=C(O)[C@]3(O)C(=O)C(C(N)=O)=C(O)[C@@H](N(C)C)[C@@H]3[C@@H](O)[C@@H]21 [Dox, doxycycline], which average doubling time (iaCMCs) is on record?
**A.** 38 h

**Q.** What about the “iaCMCs positive for the proliferation marker Ki-67” value (iaCMCs) of the same compound?
**A.** 72.2±8.1%

**Q.** Which Ucp1 transcript levels [3] does the source give for NC[C@H](O)c1ccc(O)c(O)c1 [noradrenaline] here?
**A.** increased

**Q.** And the glycerol production [3]?
**A.** increased

**Q.** What does the source list for COc1ccc(CCN2CCC(Nc3nc4ccccc4n3Cc3ccc(F)cc3)CC2)cc1 [astemizole]?
**A.** conduction velocity (CV) ([4]; 0.1 µM): 14.8 ± 2.8 cm/s; APD at 40% repolarization (APD40) ([4]; 100 nM astemizole, 30 minutes, iaCMC-d6, 1-Hz pacing, N=6, vehicle 21.5±1.0): 30.2 ± 2.1 ms; APD at 90% repolarization (APD90) ([4]; 100 nM astemizole, 30 minutes, iaCMC-d6, 1-Hz pacing, N=6, vehicle 88.7±5.4): 110.9 ± 4.2 ms
